Some test systems named below: MDA-MB-435; UACC-257; TK-10; HOP-62; OVCAR-4; SN12C; EKVX; BT-549; NCI-H23; RXF 393; HCT-116; SW-620; K562; NCI-H522; NCI-H460; LOX IMVI; ACHN; HCT-15; NCI/ADR-RES; HL-60.
Experiment in all cases: NCI anticancer screen, dose series, 48 h

Counter-ions that a name gives are not always drawn.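 Interpolation was linear, between the two tested concentrations surrounding the appropriate level; five concentrations were tested over 48 hours in 96-well plates. GI50 = concentration required for 50% inhibition of growth.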 The source made the active and inactive calls. No stated cut-off is given here; in the data, active = GI50 up to about 1.1 µM and inactive = higher. Some results are limits rather than exact numbers.

For the compound `CC1(C)CCC2=C(O1)c1ccccc1C(=O)C2=O` [LAPACHONE], the GI50 in the assay with MDA-MB-435 is 2.07 µM (inactive); with UACC-257, 0.0938 µM (active); in the assay with TK-10, 2.24 µM (inactive); in the assay with HOP-62, 0.647 µM (active); in the assay with OVCAR-4, 0.684 µM (active); with SN12C, 0.51 µM (active). The GI50 with EKVX is 1.72 µM (inactive); in the assay with BT-549 it was 0.721 µM (active); with NCI-H23 it was 0.427 µM (active); with RXF 393, 1.41 µM (inactive); in the assay with HCT-116, 0.277 µM (active); in the assay with SW-620, 0.432 µM (active). Besides, the GI50 with K562 was 0.245 µM (active); in the assay on NCI-H522, 0.605 µM (active).

`C=C(C)C1CCC(C(=O)O)CC1` (centres undefined): the GI50 with MDA-MB-435, in the assay with UACC-257, in the assay on TK-10, in the assay with HOP-62, in the assay on SN12C and with EKVX was > 100 µM (inactive) throughout. For the same compound, the GI50 with BT-549, in the assay with NCI-H23, in the assay on RXF 393, with HCT-116, in the assay with SW-620 and with NCI-H460 was > 100 µM (inactive) each time. Also, the GI50 in the assay with LOX IMVI was > 100 µM (inactive); with ACHN it was > 100 µM (inactive); in the assay with HCT-15, greater than 100 µM; in the assay on K562, > 100 µM (inactive); with NCI-H522, > 100 µM (inactive).

In the case of `Cc1ccc(S(=O)(=O)NC(=O)NC(CCC(N)=O)C(=O)O)cc1` (centres undefined), the GI50 in the assay with UACC-257, in the assay with TK-10, with HOP-62, in the assay with OVCAR-4, with SN12C and in the assay on BT-549 was > 100 µM (inactive) each time. Also, the GI50 in the assay on NCI-H23, with RXF 393, in the assay on HCT-116, in the assay on SW-620, in the assay with NCI-H460 and in the assay with LOX IMVI was > 100 µM (inactive) in each case. In addition, the GI50 in the assay on NCI/ADR-RES was > 100 µM (inactive); with ACHN, > 100 µM (inactive); in the assay on HCT-15, greater than 100 µM; in the assay with HL-60, 69.5 µM (inactive); with K562, > 100 µM (inactive); in the assay with NCI-H522, > 100 µM (inactive).

With `CCOC(CN(C)C(=O)Nc1ccc(Cl)c(Cl)c1)OCC`, the GI50 with MDA-MB-435, with UACC-257, in the assay on TK-10, with HOP-62, in the assay on OVCAR-4 and in the assay with SN12C was > 10 µM (inactive) each time. The GI50 with EKVX, with NCI-H23, in the assay on RXF 393, in the assay with HCT-116, with SW-620 and in the assay with NCI-H460 was > 10 µM (inactive) in each case. The GI50 is > 10 µM (inactive) in the assay with LOX IMVI; > 10 µM (inactive) in the assay on NCI/ADR-RES; > 10 µM (inactive) with ACHN; greater than 10 µM in the assay on HCT-15; > 10 µM (inactive) with HL-60; > 10 µM (inactive) with K562. Moreover, the GI50 in the assay on NCI-H522 is > 10 µM (inactive).

As for `CC(CN1c2ccccc2Sc2ccccc21)N(C)C` (centres undefined) [PROMETHAZINE HYDROCHLORIDE], the GI50 in the assay with MDA-MB-435 is 16.9 µM (inactive); with UACC-257 it was 23.9 µM (inactive); in the assay with HOP-62, 15.2 µM (inactive); in the assay on OVCAR-4, 16.4 µM (inactive); in the assay with SN12C, 15.3 µM (inactive); in the assay with EKVX it was 22.6 µM (inactive). Also, the GI50 is 21.8 µM (inactive) in the assay on NCI-H23; 20.8 µM (inactive) in the assay with RXF 393; 15.5 µM (inactive) with HCT-116; 23.6 µM (inactive) in the assay on SW-620; 17.9 µM (inactive) in the assay on NCI-H460; 18.9 µM (inactive) in the assay on LOX IMVI. The GI50 was 15.8 µM (inactive) with NCI/ADR-RES; 17 µM (inactive) in the assay on ACHN; 17.5 µM in the assay on HCT-15; 22.7 µM (inactive) in the assay with HL-60; 17.3 µM (inactive) in the assay with K562; 19.8 µM (inactive) with NCI-H522.

On to `O=C1O/C(=C/c2ccccc2)C(c2ccccc2)=C1O`, for which the GI50 in the assay on MDA-MB-435 is 29.8 µM (inactive); with UACC-257, > 100 µM (inactive); in the assay on TK-10, 75 µM (inactive); with HOP-62, 29.4 µM (inactive); with OVCAR-4, 55.3 µM (inactive); in the assay with SN12C, 33 µM (inactive). The GI50 was 39.2 µM (inactive) in the assay on EKVX; 19 µM (inactive) in the assay on NCI-H23; 24.3 µM (inactive) in the assay on RXF 393; 36.9 µM (inactive) with HCT-116; 43.7 µM (inactive) in the assay with SW-620; 36.6 µM (inactive) in the assay with LOX IMVI. For the same compound, the GI50 in the assay with NCI/ADR-RES is 34.7 µM (inactive); in the assay on ACHN, 74 µM (inactive); in the assay on HCT-15 it was 34.4 µM; with HL-60 it was 20.1 µM (inactive); in the assay on K562, 41.1 µM (inactive); with NCI-H522 it was 65 µM (inactive).

Take `CCOC(=O)C(C/C=C/CO)N(C)C(=O)OC(C)(C)C` (centres undefined): the GI50 with UACC-257, in the assay on TK-10, with HOP-62, with OVCAR-4, with SN12C and with EKVX was > 100 µM (inactive) in each case. Besides, the GI50 in the assay on BT-549, with NCI-H23, in the assay on RXF 393, in the assay with HCT-116, in the assay on SW-620 and with NCI-H460 was > 100 µM (inactive) each time. The GI50 with LOX IMVI is > 100 µM (inactive); with NCI/ADR-RES, > 100 µM (inactive); in the assay with ACHN, > 100 µM (inactive); in the assay with HCT-15, greater than 100 µM; in the assay on HL-60, > 100 µM (inactive); in the assay with K562, 83.9 µM (inactive). Also, the GI50 in the assay with NCI-H522 is 10.1 µM (inactive).

In the case of `COc1ccc(N(c2ccc(C#N)cc2)c2ccc(C#N)cc2)cc1`, the GI50 in the assay on MDA-MB-435, in the assay with UACC-257, in the assay on TK-10, in the assay on HOP-62, in the assay with OVCAR-4 and in the assay with SN12C was > 100 µM (inactive) each time. The GI50 in the assay on EKVX was > 100 µM (inactive); with BT-549, > 100 µM (inactive); in the assay with NCI-H23, 29.4 µM (inactive); with HCT-116, 93.5 µM (inactive); in the assay with SW-620, > 100 µM (inactive); in the assay with NCI-H460, > 100 µM (inactive). Also, the GI50 in the assay on LOX IMVI was 69.8 µM (inactive); in the assay on ACHN it was > 100 µM (inactive); in the assay on HCT-15 it was 75.2 µM; in the assay on HL-60 it was 3.97 µM (inactive); in the assay with NCI-H522, 3.78 µM (inactive).

With `OC1(c2ccccc2)CCCCCCCCC(O)(c2ccccc2)CCCCCCCC1` (centres undefined), the GI50 in the assay with MDA-MB-435, in the assay on UACC-257, in the assay with TK-10, in the assay on HOP-62, with OVCAR-4 and in the assay on SN12C was > 100 µM (inactive) throughout. The GI50 in the assay on EKVX, in the assay on NCI-H23, in the assay on RXF 393, in the assay with HCT-116, in the assay on SW-620 and in the assay on NCI-H460 was > 100 µM (inactive) throughout. In addition, the GI50 in the assay on LOX IMVI is > 100 µM (inactive); with NCI/ADR-RES it was > 100 µM (inactive); with ACHN it was > 100 µM (inactive); with HCT-15 it was greater than 100 µM; in the assay with HL-60, 59.2 µM (inactive); in the assay with K562 it was > 100 µM (inactive). In addition, in the assay on NCI-H522, the GI50 was > 100 µM (inactive).

As to `CC1OCC2OC(C)OC(C3C4=C(CC(C)(C)CC4=O)OC4=C3C(=O)CC(C)(C)C4)C2O1` (centres undefined), the GI50 in the assay with MDA-MB-435, in the assay with UACC-257, in the assay on TK-10, in the assay with HOP-62, in the assay with SN12C and with EKVX was > 100 µM (inactive) each time. The GI50 in the assay on NCI-H23, in the assay on RXF 393, in the assay with HCT-116, in the assay with SW-620, with NCI-H460 and in the assay on LOX IMVI was > 100 µM (inactive) each time. In addition, the GI50 with NCI/ADR-RES was > 100 µM (inactive); in the assay on ACHN, > 100 µM (inactive); in the assay on HCT-15 it was greater than 100 µM; in the assay with HL-60, > 100 µM (inactive); in the assay with K562, > 100 µM (inactive); in the assay on NCI-H522 it was > 100 µM (inactive).

Consider `CCCCCCCCCCCCCCCCCc1nc(Cl)nc(Cl)c1Cl`, for which the GI50 in the assay on MDA-MB-435, in the assay on TK-10, in the assay on HOP-62, in the assay with OVCAR-4, with SN12C and with NCI-H23 was > 100 µM (inactive) throughout. Further, the GI50 with RXF 393, in the assay on HCT-116, in the assay on SW-620, with NCI-H460, with LOX IMVI and in the assay with NCI/ADR-RES was > 100 µM (inactive) throughout. The GI50 in the assay on ACHN was > 100 µM (inactive); with HCT-15 it was greater than 100 µM; in the assay with HL-60 it was > 100 µM (inactive); with K562 it was > 100 µM (inactive); with NCI-H522, > 100 µM (inactive).

These data come from ChEMBL document CHEMBL1201862, “PubChem BioAssay data set” (2004).
